Reference: patent US12486495B2, “Cardiac organoid, manufacturing method therefor, and method for evaluating drug toxicity by using same” (priority 2020, dated 2025)

System: cardiac organoid

Structure (SMILES): COc1ccc(CCN(C)CCCC(C#N)(c2ccc(OC)c(OC)c2)C(C)C)cc1OC (stereo not shown) [verapamil]
- beating velocity after treatment with calcium antagonist (FIG. 13A, heat maps for beating velocity, after drug treatment): reduced
- beating velocity after washing (FIG. 13A, after washing and culturing for 1 hour): again increased
- conduction displacement after treatment (comparison of three treatment amount groups (100 nM, 1 μM, 10 μM), FIG. 13B/13C): highest in a 1 μM group
- conduction displacement after washing (comparison of three treatment amount groups, FIG. 13B/13C): highest in the 1 μM group
- beat rate variation after washing (comparison of three treatment amount groups, FIG. 13C): highest in the 10 μM group
- drug toxicity of the heart, comparison (inferred from beat rate variation at low treatment amount): higher than that of nifedipine
- treatment amount at which side effects in the heart in vivo may be caused (inferred from beat rate variation of the cardiac organoid): ≥ 100 nM
